Test results taken from patent publication US10004826B2, “Implantable human liver tissue constructs and uses thereof” (Massachusetts Institute of Technology, priority 2010, dated 2018).

Assays:
human CYP2D6 = test: Debrisoquine metabolism and pharmacokinetics in humanized C57/BL6 mice; conditions: debrisoquine 2 mg/kg oral gavage
Protocol: Humanized mice established on a C57/Bl6 mouse background were administered debrisoquine at 2 mg/kg by oral gavage. Following drug administration, mice were bled by retro-orbital draw at specific timepoints, and drug concentration quantified by LC/MS/MS. […] Error bars are SEM for n=3 mice per group.
(§2) Mice administered 80 mg/kg of coumarin injected i.p. or 2 mg/kg debrisoquine (DB) gavaged p.o were subjected to retro-orbital draw at 5, 10 15, 30, 60, 90, and 120 minutes after drug administration, and terminal urine collection at 4 h. From ˜100 ml blood collections, serum was separated by centrifugation at 1200 g for 10 minutes and stored at −20° C. […] The area under the curve from time 0 until the time of the last measurable plasma concentration (AUC0-t) was calculated using the linear trapezoidal. Peak concentration (Cmax) and time to reach maximum concentration (tmax) values were obtained directly from the plasma concentration-time profile. Metabolic ratios were determined by dividing the AUC0-t of metabolite by the AUC0-t of the parent drug.
(§3) Following coumarin or debrisoquine exposure, serum or urine was sampled for quantitation of drug parent and metabolite concentrations by liquid chromatography (LC)/MS/MS.

human CYP2A6 = biological target: T1, human CYP2A6 (Homo sapiens, UniProt P11509); conditions: athymic nude, mouse, in vivo, ip, 80 mg/kg
T1 sequence (P11509 1-494): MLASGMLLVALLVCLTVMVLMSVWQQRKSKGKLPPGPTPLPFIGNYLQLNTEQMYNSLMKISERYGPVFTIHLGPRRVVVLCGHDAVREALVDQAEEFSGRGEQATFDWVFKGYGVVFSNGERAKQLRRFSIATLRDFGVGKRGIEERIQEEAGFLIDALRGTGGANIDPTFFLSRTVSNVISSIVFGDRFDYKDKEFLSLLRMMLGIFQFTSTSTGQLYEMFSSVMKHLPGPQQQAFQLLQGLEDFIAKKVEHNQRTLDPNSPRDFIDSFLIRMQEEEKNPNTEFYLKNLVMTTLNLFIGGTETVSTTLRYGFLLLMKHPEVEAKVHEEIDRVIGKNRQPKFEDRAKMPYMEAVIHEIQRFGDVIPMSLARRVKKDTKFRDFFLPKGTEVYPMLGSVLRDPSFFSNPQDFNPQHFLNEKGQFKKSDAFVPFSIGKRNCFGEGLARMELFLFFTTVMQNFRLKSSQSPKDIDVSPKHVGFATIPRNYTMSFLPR
Protocol: Humanized mice established on a nude mouse background were administered coumarin at 80 mg/kg by intraperitoneal injection. Following drug administration, mice were bled by retro-orbital draw at specific timepoints, and drug concentration quantified by LC/MS/MS. Open circles represent humanized mice, and closed circles represent wild-type (no implant) mice. Error bars are SEM for n=3 mice per group.
as §2, §3

Mouse livers = conditions: in vivo
Protocol: Serum samples acquired at 4 h following APAP exposure were assayed for the liver damage marker alanine transaminase (ALT) using an endpoint colorimetric enzymatic assay.
Serum samples acquired at 4 h following APAP exposure were assayed for the liver damage markers aspartame transaminase (AST) using an endpoint colorimetric enzymatic assay. Shown are individual data points for n=3 mice per group, where black bars represent average values for each group.
Explanted livers were sectioned and stained with H&E. Shown are representative sections.
At day 9 of implantation, mice were fed by oral gavage with 500 ml drinking water or 500 ml acetaminophen (APAP, 250 mg/kg) in water. Mice were fasted for 16 h prior to APAP administration. Following APAP exposure, blood was collected by retro-orbital draw at 4 h. Blood samples were acquired by retro-orbital draw at 4 h following APAP exposure, serum separated, and serum analyzed for enzymatic activity of alanine transaminase (ALT) and aspartame transaminase (AST), non-species specific markers of liver damage (Teco Diagnostics). Engineered liver mimetics and mouse livers were extracted for biochemical and histological analysis. Mouse livers were paraffin-embedded, sectioned with 5 um slices, de-paraffinized and stained for hematoxylin and eosin (H&E).

hepatitis C virus = conditions: uPA+/+/SCID model; cited from earlier work
human liver mimetics = test: Human hepatotoxicity in humanized mice by serum human albumin ELISA; assay type: in vivo, mouse; conditions: inducers daily at days 4-7 post-implantation; OME oral gavage, RIF i.p.; blood days 2, 5, 7
Source text: Error bars are SEM for n=3 or greater.
Blood was collected by retro-orbital draw on days 2, 5 and 7 days after implantation for drug-treated mice and control mice with acellular hydrogel intraperitoneal implantations. Red bars mark average human serum albumin levels at each timepoint for n=3-6 mice per condition.
(§1) Human albumin in serum or media samples was quantified by enzyme-linked immunosorbant assay performed using goat anti-human albumin antibody, horseradish peroxidase detection, and 3,3′,5,5′-tetramethylbenzidine development. Urea was measured by acid- and heat-catalyzed detection of diacetylmonoxime conversion to a colorimetric product. Alanine aminotransfer (ALT) and aspartate aminotransfer (AST) enzymatic levels were detected with clinical kits based on colorimetric endpoint methods.

[1] = system: luciferase-expressing Plasmodium berghei (Pb-luc); conditions: Huh7.5 and HC04 hepatoma cells in alginate
Protocol: Primary adult human hepatocytes and J2 stromal fibroblasts were seeded in lyophilized alginate sponges and infected with luciferase-expressing Plasmodium berghei (Pb-luc) three days post-seeding. Bioluminescence imaging was performed two days post-infection (FIG. 11a).
Next, the response of Pb-luc-infected hepatoma aggregates in alginate to primaquine treatment was tested.

[2] = system: encapsulated human hepatocytes; test: Albumin secretion and urea synthesis of HEP/FIB encapsulated in peptide-derivatized PEG-DA hydrogel; assay type: cell-based; conditions: 10 μmol/ml peptide; vs RGES controls; one week in vitro
Protocol: Liver mimetics were fabricated using a hydrogel polymerization apparatus. In brief, cellular pre-polymer solution was loaded into a 20-mm diameter, […] silicone spacer, and the solution exposed to UV light from a spot curing system with collimating lens (320-390 nm, 10 mW/cm^2, 20-30 s; EXFO Lite). […] Acrylate-PEG-peptide monomers were synthesized by conjugating RGDS or RGES to acrylate-PEG-N-hydroxysuccinimide (3.4 kDa) at a 1:1 molar ratio in 50 mM sodium bicarbonate buffer (pH 8.5). Reactions were dialyzed overnight against […] MWCO cellulose ester membrane and lyophilized for long-term storage at −80° C. Hepatocyte/fibroblast co-cultures were encapsulated at a final concentration of 8×10^6 hepatocytes/ml pre-polymer, in the absence or presence of an additional 6×10^6 liver endothelial cells (LEC)/ml of pre-polymer.
as §1, with “methods. […]” for “methods.”

Q: For `N=C(N)N1Cc2ccccc2C(O)C1` (centres unmarked) [4-OHDB, 4-hydroxydebrisoquine], which “Metabolic ratio (metabolite exposure over parent drug exposure, AUC), 4-OHDB/debrisoquine” value (human CYP2D6) is on record?
A: > 0.1

Q: Which “Metabolic ratio (metabolite exposure over parent drug exposure, AUC), 7-HC/coumarin” value (human CYP2A6) does the source give for `O=c1ccc2ccc(O)cc2o1` [7-HC, 7-hydroxycoumarin] here?
A: > 0.1

Q: With `CC(=O)Nc1ccc(O)cc1` [APAP, acetaminophen] as the molecule, how does the “Mouse liver injury by serum liver function enzyme tests and histopathology” value (Mouse livers) read?
A: appeared uninjured

Q: For `COc1ccc2c(O[C@@H]3C[C@H]4C(=O)N[C@]5(C(=O)O)C[C@H]5/C=C\CCCCC[C@H](NC(=O)OC5CCCC5)C(=O)N4C3)cc(-c3csc(NC(C)C)n3)nc2c1` [BILN-2061], which “Response of HCV infection to anti-HCV therapy” value (hepatitis C virus) is on record?
A: responding

Q: For `COc1ccc2[nH]c([S+]([O-])Cc3ncc(C)c(OC)c3C)nc2c1` (centres unmarked) [OME, omeprazole], which “Human serum albumin from humanized mice over time” value (human liver mimetics) is on record?
A: not affected

Q: For `CO[C@H]1/C=C/O[C@@]2(C)Oc3c(C)c(O)c4c(O)c(c(/C=N/N5CCN(C)CC5)c(O)c4c3C2=O)NC(=O)/C(C)=C\C=C\[C@H](C)[C@H](O)[C@@H](C)[C@@H](O)[C@@H](C)[C@H](OC(C)=O)[C@@H]1C` [RIF, rifampin], which “Mouse liver injury by serum liver function enzyme tests and histopathology” value (Mouse livers) is on record?
A: appeared uninjured

Q: With `COc1cc(NC(C)CCCN)c2ncccc2c1` (centres unmarked) [primaquine] as the molecule, how does the “Inhibition of parasite development (BLI quantification)” value [1] read?
A: greater effect on inhibiting parasite development in Huh7.5 than in HC04

Q: For RGDS, which “Improvement of encapsulated HEP/FIB synthetic and secretory functions” value [2] is on record?
A: two- to three-fold
